Measurements published in US12264156B2, “Compounds and pharmaceutical compositions thereof for the treatment of diseases” (GALAPAGOS NV, priority 2018, dated 2025).

Legend:
[1] = test system: LPS triggered IL-10 secretion in monocytes; experiment: Monocytes assay: LPS-triggered IL-10 (ELISA); format: cell-based, human; details: LPS 200 ng/mL, supernatant after 4 h, maximal fold change vs LPS only
Method: (§1) SIK inhibition inhibits TNFα and increases IL-10 release in LPS triggered monocyte-derived macrophages (MdM) and dendritic cells (MdDCs) (Clark et al. 2012; Sundberg et al. 2014; Ozanne et al. 2015). This assay evaluates illustrative compounds of the invention for their inhibition of LPS-induced TNFα and LPS triggered IL-10 secretion in monocytes.
(§2) PBMCs are isolated from human blood samples (buffycoats). The buffy coat is aseptically transferred into a 50 mL Falcon tube, and diluted 1/2 in PBS. Falcon tubes are filled with 20 mL Lymphoprep™, on top of which 25 mL of the buffy coat is carefully added, tubes are centrifuged for 35 min at 400 g in temperature controlled centrifuge, without brake, at 25° C. PBMCs are aspirated from the white interface layer between sample and Lymphoprep™. PBMCs are washed five times in PBS. Cells are resuspended in RPMI 1640 complete medium supplemented with 10% FBS, 1% P/S, and cell density is determined using a hematologic analyzer (Sysmex XS-500i).
(§3) PBMCs are centrifuged at 300×g for 10 min and resuspended at a density of 1.0*10^7 cells/80 μL Miltenyi buffer (PBS, pH 7.4, 1% FBS, 2 mM EDTA).
(§4) Starting from this point of the protocol all steps are performed on ice. 20 μL of CD14+ micro-beads are added per 1.0*10^7 cells, the tube is mixed and incubated for 15 min in the fridge at 4° C. Cell suspension volume is adjusted to total volume of 100 mL using Miltenyi buffer, mixed gently and subsequently centrifuged for 10 min at 300×g. Supernantant is discarded and cell pellet is resuspended in 12 mL of Miltenyi buffer.
(§5) Four LS columns are placed in the MACS Separator (magnet) from Miltenyi Biotec, and are prewet by rinsing with 3 mL of MACS buffer per column. Three mL of cell suspension is added onto the column (max 1*10^8 of labelled cells/column), and columns are subsequently washed 3 times with 3 mL of Miltenyi buffer.
(§6) The columns are removed from the magnets, and 5 mL of Miltenyi buffer are added to the column to flush out the CD14+ fraction by pushing the plunger into the column. The flushed fractions are collected in a fresh 50 mL Falcon and volume is adjusted to 30 mL using Miltenyi buffer, cells are centrifuged for 10 min at 300×g. The obtained cell pellet is resuspended in 10 mL RPMI w/o FBS, and cell density is determined using a hematologic analyser (Sysmex XS-500i). 100 000 cells are seeded in 80 μL per well of a 96-well plate in RPMI 1640 medium supplemented with 10% FBS, 1% P/S.
(§7) A compound dilution plate is made in 100% DMSO by 3-fold dilution of 10 mM stock solution. An intermediate dilution plate (10× final concentration) is made by diluting the compound dilution plate 50-fold in RPMI medium.
(§8) 10 μL of the 10× final concentration compound is added to the cells and incubated for 1 h at 37° C. before addition of trigger. No trigger conditions/trigger conditions are spiked with equal final DMSO concentrations of 0.2% DMSO. 10 μL of 10×LPS (final conc. 200 ng/mL) solution are added to all wells except for the ‘no trigger wells’ where 10 μL medium is added. Supernatant is collected after 4 h of LPS triggering.
A Lumitrac 600 Greiner 384-well plate is coated with 40 μL of capture antibody (final concentration of 1 μg/mL in 1×PBS) and stored overnight at 4° C. The next day the plate is washed three times with PBST (PBS+0.05% Tween20) and once with PBS followed by the addition of 100 μL of blocking buffer (1% BSA−5% Sucrose) and plates are sealed and incubated for at least 4 h at RT. After washing the plate once with PBST and once with PBS, 40 μL of standard or sample are added (IL-10 standard curve is prepared using a 1/2 serial dilution starting from […]; dilutions are made in dilution buffer (PBS+1% BSA)). Plates are washed twice with PBST, and once with PBS, after which 35 μL of the detection antibody is added (final concentration 0.143 μg/mL diluted in dilution buffer) and plates are incubated for at least 2 h at RT. […]

SIK2 = molecular target: T1, SIK2 (Homo sapiens, UniProt Q9H0K1); experiment: ADP-Glo kinase assay, SIK2; format: biochemical; details: ADP-Glo SIK kinase assay
T1 construct: purchased ThermoFisher Scientific PV4792
In short: (§9)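 ADP-Glo, RT throughout. Enz/substrate + ATP, 120 min; ADP-Glo reagent 40 min (ATP depletion); detection reagent 30 min; luminescence read. Neg ctrl 1% DMSO, pos ctrl 10 μM staurosporine, final concs.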

[2] = test system: LPS-induced TNFα in monocytes; experiment: Monocytes assay: LPS-triggered TNFα (ELISA); format: cell-based, human; details: Homo sapiens, Monocyte, LPS 200 ng/mL, supernatant after 4 h
Method: as §1, §2, §3, §4, §5, §6, §7, §8
A Lumitrac 600 Greiner 384-well plate is coated with 40 μL of capture antibody (BD Pharmingen, Cat #551220) reaching a final concentration of 1 μg/mL in 1×PBS and stored overnight at 4° C.
The plate is then washed once with PBST (PBS+0.05% Tween20) and once with PBS followed by the addition of 100 μL of blocking buffer (1% Bovine Serum Albumin (BSA)−5% Sucrose) and plates are sealed and incubated for at least 4 h at RT. After washing the plate once with PBST and once with PBS, […]. Plates are washed twice with PBST, and once with PBS, after which 35 μL of the detection antibody is added (final concentration 0.25 μg/mL diluted in dilution buffer) and plates are incubated for at least 2 h at RT. […]

SIK1 = molecular target: T2, SIK1 (Homo sapiens, UniProt P57059); experiment: ADP-Glo kinase assay, SIK1; format: biochemical; details: ADP-Glo SIK kinase assay
T2 construct: purchased Carna Biosciences 02-131
In short: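 Enzyme–substrate mix was started with ATP and incubated 120 min at RT. ADP formed was quantified by ADP-Glo: 40 min ATP depletion, then 30 min detection reagent converting ADP to ATP for luciferase luminescence, which rises with kinase activity. Controls: 1% DMSO and 10 μM staurosporine (final).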

SIK3 = molecular target: T3, SIK3 (Homo sapiens, UniProt Q9Y2K2); experiment: ADP-Glo kinase assay, SIK3; format: biochemical; details: ADP-Glo SIK kinase assay
T3 construct: purchased SignalChem S12-11G-100
In short: as §9

T2 sequence (P57059 whole entry): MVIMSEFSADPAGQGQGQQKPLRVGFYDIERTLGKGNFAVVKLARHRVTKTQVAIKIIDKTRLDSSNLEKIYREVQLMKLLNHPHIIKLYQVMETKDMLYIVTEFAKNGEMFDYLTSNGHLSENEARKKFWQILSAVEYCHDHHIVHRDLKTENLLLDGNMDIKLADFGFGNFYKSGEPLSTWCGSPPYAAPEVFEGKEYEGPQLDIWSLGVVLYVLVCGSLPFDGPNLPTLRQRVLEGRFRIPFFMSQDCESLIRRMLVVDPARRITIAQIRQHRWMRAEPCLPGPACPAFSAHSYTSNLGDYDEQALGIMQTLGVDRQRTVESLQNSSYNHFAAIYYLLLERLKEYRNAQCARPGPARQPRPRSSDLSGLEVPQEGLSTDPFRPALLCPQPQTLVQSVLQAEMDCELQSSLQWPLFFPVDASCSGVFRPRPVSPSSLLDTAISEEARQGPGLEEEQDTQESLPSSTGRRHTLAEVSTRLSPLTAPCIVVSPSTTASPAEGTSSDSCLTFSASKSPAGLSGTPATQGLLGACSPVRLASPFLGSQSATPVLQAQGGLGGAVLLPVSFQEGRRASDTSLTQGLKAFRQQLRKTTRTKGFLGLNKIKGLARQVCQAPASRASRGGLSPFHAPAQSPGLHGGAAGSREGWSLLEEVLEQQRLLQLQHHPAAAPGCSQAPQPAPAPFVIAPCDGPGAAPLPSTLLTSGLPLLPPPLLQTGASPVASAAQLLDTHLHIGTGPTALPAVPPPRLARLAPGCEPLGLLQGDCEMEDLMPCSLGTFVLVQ
T3 sequence (Q9Y2K2 whole entry): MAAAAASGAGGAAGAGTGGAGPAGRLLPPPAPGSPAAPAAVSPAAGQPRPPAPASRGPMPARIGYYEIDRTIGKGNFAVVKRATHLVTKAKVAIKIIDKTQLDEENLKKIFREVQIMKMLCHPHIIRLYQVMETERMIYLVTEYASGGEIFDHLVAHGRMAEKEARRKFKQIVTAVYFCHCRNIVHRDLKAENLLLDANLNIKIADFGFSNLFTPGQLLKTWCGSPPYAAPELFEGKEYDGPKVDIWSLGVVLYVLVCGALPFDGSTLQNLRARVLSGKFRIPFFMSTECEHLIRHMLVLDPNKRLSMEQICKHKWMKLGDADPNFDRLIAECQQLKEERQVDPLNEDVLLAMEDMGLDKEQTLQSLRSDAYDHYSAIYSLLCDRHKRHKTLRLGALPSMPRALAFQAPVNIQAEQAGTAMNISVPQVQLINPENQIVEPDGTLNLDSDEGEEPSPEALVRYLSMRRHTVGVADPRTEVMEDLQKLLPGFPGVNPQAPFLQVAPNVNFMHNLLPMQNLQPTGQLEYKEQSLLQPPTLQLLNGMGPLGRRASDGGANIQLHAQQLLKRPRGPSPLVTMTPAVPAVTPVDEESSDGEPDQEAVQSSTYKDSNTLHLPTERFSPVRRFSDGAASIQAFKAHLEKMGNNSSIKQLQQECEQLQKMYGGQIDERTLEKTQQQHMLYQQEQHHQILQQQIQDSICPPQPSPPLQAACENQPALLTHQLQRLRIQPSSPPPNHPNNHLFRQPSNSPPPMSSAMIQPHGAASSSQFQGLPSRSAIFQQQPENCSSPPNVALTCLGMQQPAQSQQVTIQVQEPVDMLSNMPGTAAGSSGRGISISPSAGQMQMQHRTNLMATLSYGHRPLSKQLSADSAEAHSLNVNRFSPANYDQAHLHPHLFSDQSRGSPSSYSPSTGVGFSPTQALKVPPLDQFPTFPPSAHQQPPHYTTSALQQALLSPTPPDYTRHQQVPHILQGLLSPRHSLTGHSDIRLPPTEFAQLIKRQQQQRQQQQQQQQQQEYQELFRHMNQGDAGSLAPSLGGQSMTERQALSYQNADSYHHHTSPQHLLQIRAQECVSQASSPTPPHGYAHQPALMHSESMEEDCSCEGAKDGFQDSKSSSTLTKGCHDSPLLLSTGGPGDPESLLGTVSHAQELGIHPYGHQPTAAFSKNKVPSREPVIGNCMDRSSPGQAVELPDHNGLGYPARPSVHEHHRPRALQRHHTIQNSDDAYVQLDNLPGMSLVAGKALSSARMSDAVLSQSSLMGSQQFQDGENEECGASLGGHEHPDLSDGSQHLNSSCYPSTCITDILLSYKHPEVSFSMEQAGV
T1 sequence (Q9H0K1 whole entry): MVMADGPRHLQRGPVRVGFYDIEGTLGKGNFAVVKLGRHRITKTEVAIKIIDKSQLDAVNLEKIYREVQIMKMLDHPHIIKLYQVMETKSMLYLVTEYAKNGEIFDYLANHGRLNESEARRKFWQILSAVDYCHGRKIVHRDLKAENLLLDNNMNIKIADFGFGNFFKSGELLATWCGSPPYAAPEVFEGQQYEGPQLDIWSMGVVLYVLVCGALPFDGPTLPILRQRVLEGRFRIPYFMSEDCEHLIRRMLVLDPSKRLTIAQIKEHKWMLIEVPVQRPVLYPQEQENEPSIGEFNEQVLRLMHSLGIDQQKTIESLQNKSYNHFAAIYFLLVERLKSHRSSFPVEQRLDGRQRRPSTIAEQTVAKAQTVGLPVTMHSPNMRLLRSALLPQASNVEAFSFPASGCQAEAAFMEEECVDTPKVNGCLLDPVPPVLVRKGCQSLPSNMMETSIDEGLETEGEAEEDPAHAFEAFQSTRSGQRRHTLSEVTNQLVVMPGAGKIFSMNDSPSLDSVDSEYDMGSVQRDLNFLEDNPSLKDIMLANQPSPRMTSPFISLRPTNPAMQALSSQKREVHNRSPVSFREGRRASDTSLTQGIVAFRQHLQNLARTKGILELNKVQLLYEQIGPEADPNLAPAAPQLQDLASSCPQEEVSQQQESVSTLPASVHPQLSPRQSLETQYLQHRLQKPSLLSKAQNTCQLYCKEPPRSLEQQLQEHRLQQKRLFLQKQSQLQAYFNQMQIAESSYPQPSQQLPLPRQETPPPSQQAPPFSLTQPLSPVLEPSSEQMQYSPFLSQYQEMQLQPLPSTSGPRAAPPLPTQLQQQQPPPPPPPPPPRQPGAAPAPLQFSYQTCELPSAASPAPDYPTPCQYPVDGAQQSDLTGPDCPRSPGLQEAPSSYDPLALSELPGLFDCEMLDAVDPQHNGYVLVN

Compound	IC50 (SIK2) [nM]	EC50 ([2]; 4 h) [nM]	IC50 (SIK1) [nM]	IC50 (SIK3) [nM]	IL-10 FCmax median [1]	EC50 [2] [nM]
COc1cc(-c2cnc3cc(OC[C@@H]4CCCNC4)ccn23)cc(OC(F)F)c1C(=O)NC1CC1 [Cpd 335, N-cyclopropyl-2-(difluoromethoxy)-6-methoxy-4-[7-[[(3R)-3-piperidyl]methoxy]imidazo[1,2-a]pyridin-3-yl]benzamide]	0.01 to 10	100 to 1000	10 to 100	0.01 to 10	+++ (>4.5)	
COc1cc(-c2cnc3cc(OCCCN4CCCC5(COC5)C4)ccn23)cc(OC(F)F)c1C(=O)NC1CC1 [compound 303, N-cyclopropyl-2-(difluoromethoxy)-6-methoxy-4-[7-[3-(2-oxa-8-azaspiro[3.5]nonan-8-yl)propoxy]imidazo[1,2-a]pyridin-3-yl]benzamide]	0.01 to 10	0.1 to 100	10 to 100	0.01 to 10	+++ (>4.5)	
COc1cc(-c2cnc3cc(OC4C[C@H]5CC[C@@H](C4)N5)ccn23)cc(OC(F)F)c1C(=O)NC1CC1.Cl (stereo partly drawn) [Cpd 270, 4-[7-[[(1R,5S)-8-azabicyclo[3.2.1]octan-3-yl]oxy]imidazo[1,2-a]pyridin-3-yl]-N-cyclopropyl-2-(difluoromethoxy)-6-methoxy-benzamide hydrochloride salt]	10 to 100		100 to 500	0.01 to 10	++ (>1.5-4.5)	1000 to 5000
COc1cc(-c2cnc3cc(OCCCN4CCC(F)(CO)CC4)ccn23)cc(OC(F)F)c1C(=O)NC1CC1 [compound 360, N-cyclopropyl-2-(difluoromethoxy)-4-[7-[3-[4-fluoro-4-(hydroxymethyl)-1-piperidyl]propoxy]imidazo [1,2-a]pyridin-3-yl]-6-methoxy-benzamide]	0.01 to 10	0.1 to 100	10 to 100	0.01 to 10	++ (>1.5-4.5)	
COc1cc(-c2cnc3cc(OCCCN4CCC(F)(C(N)=O)CC4)ccn23)cc(OC(F)F)c1C(=O)NC1CC1 [Cpd 361, l-[3-[3-[4-(cyclopropylcarbamoyl)-3-(difluoromethoxy)-5-methoxy-phenyl]imidazo[1,2-a]pyridin-7-yl]oxypropyl]-4-fluoro-piperidine-4-carboxamide]	0.01 to 10	0.1 to 100	10 to 100	0.01 to 10	++ (>1.5-4.5)	
COc1cc(-c2cnc3cc(OCCCN4CCC(O)C4)ccn23)cc(OC(F)F)c1C(=O)NC1CC1 (centres unmarked) [compound 319, N-cyclopropyl-2-(difluoromethoxy)-4-[7-[3-(3-hydroxypyrrolidin-1-yl)propoxy]imidazo[1,2-a]pyridin-3-yl]-6-methoxy-benzamide]	0.01 to 10	100 to 1000	10 to 100	0.01 to 10	++ (>1.5-4.5)	
COc1cc(-c2cnc3cc(OCCCN4CC5(CCC5)C4)ccn23)cc(OC(F)F)c1C(=O)NC1CC1 [compound 293, 4-[7-[3-(2-azaspiro[3.3]heptan-2-yl)propoxy]imidazo[1,2-a]pyridin-3-yl]-N-cyclopropyl-2-(difluoromethoxy)-6-methoxy-benzamide]	0.01 to 10	0.1 to 100	10 to 100	0.01 to 10	+++ (>4.5)	

More lines, main results first:

IC50 (SIK2) [nM]	EC50 ([2]; 4 h) [nM]	IC50 (SIK1) [nM]	IC50 (SIK3) [nM]	Compound	IL-10 FCmax median [1]	EC50 [2] [nM]
0.01 to 10	0.1 to 100	10 to 100	0.01 to 10	COc1cc(-c2cnc3cc(OCCCN4CCC(F)(F)C(O)C4)ccn23)cc(OC(F)F)c1C(=O)NC1CC1 (centres unmarked) [compound 344, N-cyclopropyl-4-[7-[3-(4,4-difluoro-3-hydroxy-1-piperidyl)propoxy]imidazo [1,2-a]pyridin-3-yl]-2-(difluoromethoxy)-6-methoxy-benzamide]	++ (>1.5-4.5)	
0.01 to 10	100 to 1000	10 to 100	0.01 to 10	COc1cc(-c2cnc3cc(OC[C@@H]4CCN(CCO)C4)ccn23)cc(OC(F)F)c1C(=O)NC1CC1 [Cpd 349, N-cyclopropyl-2-(difluoromethoxy)-4-[7-[[(3R)-1-(2-hydroxyethyl)pyrrolidin-3-yl]methoxy]imidazo[1,2-a]pyridin-3-yl]-6-methoxy-benzamide]	+++ (>4.5)	
0.01 to 10	0.1 to 100	10 to 100	0.01 to 10	COc1cc(-c2cnc3cc(OCCCN4CC(O)C(F)(F)C4)ccn23)cc(OC(F)F)c1C(=O)NC1CC1 (centres unmarked) [compound 345, N-cyclopropyl-4-[7-[3-(3,3-difluoro-4-hydroxy-pyrrolidin-1-yl)propoxy]imidazo[1,2-a]pyridin-3-yl]-2-(difluoromethoxy)-6-methoxy-benzamide]	+++ (>4.5)	
0.01 to 10	100 to 1000	10 to 100	0.01 to 10	COc1cc(-c2cnc3cc(OCCCN4CCCCC4)ccn23)cc(OC(F)F)c1C(=O)NCC#N [compound 356, N-(cyanomethyl)-2-(difluoromethoxy)-6-methoxy-4-[7-[3-(1-piperidyl)propoxy]imidazo[1,2-a]pyridin-3-yl]benzamide]	+++ (>4.5)	
0.01 to 10	0.1 to 100	10 to 100	0.01 to 10	COc1cc(-c2cnc3cc(OCCCN4CCC45CCC5)ccn23)cc(OC(F)F)c1C(=O)NC1CC1 [compound 302, 4-[7-[3-(1-azaspiro[3.3]heptan-1-yl)propoxy]imidazo[1,2-a]pyridin-3-yl]-N-cyclopropyl-2-(difluoromethoxy)-6-methoxy-benzamide]	+++ (>4.5)	
0.01 to 10	0.1 to 100	10 to 100	0.01 to 10	COc1cc(-c2cnc3cc(OCCCN4CCC45COC5)ccn23)cc(OC(F)F)c1C(=O)NC1CC1 [compound 300, N-cyclopropyl-2-(difluoromethoxy)-6-methoxy-4-[7-[3-(6-oxa-1-azaspiro[3.3]heptan-1-yl)propoxy]imidazo[1,2-a]pyridin-3-yl]benzamide]	+++ (>4.5)	
